Experiment [1] concerns the target T1, Calcium/calmodulin-dependent protein kinase kinase 2 (Homo sapiens, UniProt Q96RR4). Description: Inhibition of GST-tagged human CAMKK2 incubated for 90 mins by TR-FRET assay. Background: Time-resolved FRET reads energy transfer from a long-lived donor to a nearby acceptor.
Target sequence in this assay (Q96RR4 whole entry): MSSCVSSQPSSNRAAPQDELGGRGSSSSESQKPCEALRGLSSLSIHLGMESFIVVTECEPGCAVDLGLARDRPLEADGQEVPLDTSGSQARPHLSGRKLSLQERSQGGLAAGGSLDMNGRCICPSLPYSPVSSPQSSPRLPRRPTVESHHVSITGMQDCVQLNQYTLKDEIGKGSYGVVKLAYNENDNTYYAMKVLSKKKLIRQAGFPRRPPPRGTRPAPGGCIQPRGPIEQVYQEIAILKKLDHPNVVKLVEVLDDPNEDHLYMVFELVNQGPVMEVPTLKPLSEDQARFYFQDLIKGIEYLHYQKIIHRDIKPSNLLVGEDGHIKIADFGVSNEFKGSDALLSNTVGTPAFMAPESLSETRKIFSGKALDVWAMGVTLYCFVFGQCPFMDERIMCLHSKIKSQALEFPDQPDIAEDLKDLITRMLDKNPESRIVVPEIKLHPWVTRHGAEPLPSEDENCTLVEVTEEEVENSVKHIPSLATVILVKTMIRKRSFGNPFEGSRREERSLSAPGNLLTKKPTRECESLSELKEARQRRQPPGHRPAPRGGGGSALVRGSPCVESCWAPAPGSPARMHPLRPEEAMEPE
Experiment [2] has as its target Glycogen synthase kinase-3 alpha (Homo sapiens, UniProt P49840). Description: Inhibition of GST-tagged human GSK3A incubated for 90 mins by TR-FRET assay.
Experiment [3] addresses T2, Mitogen-activated protein kinase 15 (Homo sapiens, UniProt Q8TD08).
T2 sequence (Q8TD08 whole entry): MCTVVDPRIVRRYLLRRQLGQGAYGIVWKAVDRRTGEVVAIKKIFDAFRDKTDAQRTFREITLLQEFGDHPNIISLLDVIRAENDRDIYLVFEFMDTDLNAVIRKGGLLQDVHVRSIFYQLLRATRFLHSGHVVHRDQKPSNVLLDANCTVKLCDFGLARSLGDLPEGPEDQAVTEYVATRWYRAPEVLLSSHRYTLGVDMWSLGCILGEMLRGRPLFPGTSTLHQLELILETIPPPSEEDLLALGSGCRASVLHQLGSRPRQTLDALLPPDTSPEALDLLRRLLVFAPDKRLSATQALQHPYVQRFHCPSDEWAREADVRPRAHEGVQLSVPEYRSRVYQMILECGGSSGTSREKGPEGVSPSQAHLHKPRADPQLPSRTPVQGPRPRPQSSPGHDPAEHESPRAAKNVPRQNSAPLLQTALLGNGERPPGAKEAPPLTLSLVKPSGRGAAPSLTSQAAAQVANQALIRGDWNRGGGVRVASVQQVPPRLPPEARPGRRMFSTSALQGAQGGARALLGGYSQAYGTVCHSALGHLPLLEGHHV
Nature of the experiment: Inhibition of Flag/His-tagged human MAPK15 incubated for 90 mins by TR-FRET assay.

Experiment [4] has as its target T3, Nuclear receptor subfamily 1 group I member 3 (Homo sapiens, UniProt Q14994).
T3 sequence (Q14994 whole entry): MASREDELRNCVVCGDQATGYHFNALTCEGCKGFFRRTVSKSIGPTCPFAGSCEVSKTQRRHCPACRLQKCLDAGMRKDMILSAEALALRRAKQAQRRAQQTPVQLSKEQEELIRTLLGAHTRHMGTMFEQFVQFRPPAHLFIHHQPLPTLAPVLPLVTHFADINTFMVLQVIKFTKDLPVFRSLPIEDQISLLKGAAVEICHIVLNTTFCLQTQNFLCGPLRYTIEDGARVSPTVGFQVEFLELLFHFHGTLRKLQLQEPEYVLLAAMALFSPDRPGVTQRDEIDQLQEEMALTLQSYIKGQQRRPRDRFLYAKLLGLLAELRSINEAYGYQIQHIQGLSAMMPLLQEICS
Description: Inhibition of GST-tagged human CAR LBD incubated for 90 mins by TR-FRET assay.

Experiment [5] addresses T3, Nuclear receptor subfamily 1 group I member 3. Description: Inhibition of GST-tagged human CAR LBD at 90 uM incubated for 90 mins in presence of Cy5-PGC1-alpha by HTRF co-activator assay relative to control. As to conditions: 1.5 h, read-out: Imax.
Experiment [6] shares this target. Nature of the experiment: Inhibition of GST-tagged human CAR LBD incubated for 90 mins in presence of Cy5-PGC1-alpha by HTRF co-activator assay.
Experiment [7] has the same target. Description: Inhibition of GST-tagged human CAR LBD at 100 uM incubated for 90 mins by TR-FRET assay relative to control. As to conditions: 1.5 h, read-out: Imax.
For experiment [8], the target named is CDK9/cyclin T1 (Homo sapiens, UniProt P50750). Nature of the experiment: Inhibition of His-tagged human CDK9/CycT1 incubated for 90 mins by TR-FRET assay. The experiment is classed as protein-complex assay.
CDK9/cyclin T1, sequence (O60563 whole entry, the tested form may be a part): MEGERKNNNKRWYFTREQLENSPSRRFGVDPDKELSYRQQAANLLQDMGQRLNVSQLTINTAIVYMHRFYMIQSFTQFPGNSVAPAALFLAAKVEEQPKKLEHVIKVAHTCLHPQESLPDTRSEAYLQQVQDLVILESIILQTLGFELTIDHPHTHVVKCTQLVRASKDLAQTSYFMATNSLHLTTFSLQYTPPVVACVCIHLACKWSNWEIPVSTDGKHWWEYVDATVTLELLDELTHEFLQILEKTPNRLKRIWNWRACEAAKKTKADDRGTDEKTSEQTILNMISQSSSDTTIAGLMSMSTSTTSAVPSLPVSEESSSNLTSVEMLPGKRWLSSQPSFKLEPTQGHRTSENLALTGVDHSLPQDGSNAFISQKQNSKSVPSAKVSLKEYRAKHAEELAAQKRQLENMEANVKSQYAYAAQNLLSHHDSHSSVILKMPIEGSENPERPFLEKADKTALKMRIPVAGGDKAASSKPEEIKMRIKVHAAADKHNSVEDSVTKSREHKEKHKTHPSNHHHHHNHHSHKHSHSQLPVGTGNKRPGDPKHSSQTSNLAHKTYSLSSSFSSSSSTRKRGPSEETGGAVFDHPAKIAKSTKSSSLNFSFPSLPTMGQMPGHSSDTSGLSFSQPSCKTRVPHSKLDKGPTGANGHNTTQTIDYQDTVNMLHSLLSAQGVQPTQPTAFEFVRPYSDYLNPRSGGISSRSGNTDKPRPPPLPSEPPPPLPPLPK
CDK9/cyclin T1, sequence (P50750 whole entry, the tested form may be a part): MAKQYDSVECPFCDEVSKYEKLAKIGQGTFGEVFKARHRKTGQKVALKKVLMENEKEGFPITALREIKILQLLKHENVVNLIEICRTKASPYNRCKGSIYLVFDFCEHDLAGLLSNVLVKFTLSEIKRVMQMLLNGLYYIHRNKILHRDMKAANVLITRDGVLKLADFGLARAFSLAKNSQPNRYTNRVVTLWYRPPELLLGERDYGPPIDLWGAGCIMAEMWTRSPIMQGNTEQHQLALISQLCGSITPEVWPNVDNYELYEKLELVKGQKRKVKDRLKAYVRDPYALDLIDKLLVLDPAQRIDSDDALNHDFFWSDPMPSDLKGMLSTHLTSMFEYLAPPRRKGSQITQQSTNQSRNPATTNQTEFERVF
Experiment [9] has as its target T3, Nuclear receptor subfamily 1 group I member 3. Description: Inhibition of GST-tagged human CAR LBD at 100 uM incubated for 90 mins in presence of Cy5-PGC1-alpha by HTRF co-activator assay relative to control. As to conditions: 1.5 h, read-out: Imax.
For experiment [10], the target named is T4, Peripheral plasma membrane protein CASK (Homo sapiens) (UniProt O14936).
T4 sequence (whole entry): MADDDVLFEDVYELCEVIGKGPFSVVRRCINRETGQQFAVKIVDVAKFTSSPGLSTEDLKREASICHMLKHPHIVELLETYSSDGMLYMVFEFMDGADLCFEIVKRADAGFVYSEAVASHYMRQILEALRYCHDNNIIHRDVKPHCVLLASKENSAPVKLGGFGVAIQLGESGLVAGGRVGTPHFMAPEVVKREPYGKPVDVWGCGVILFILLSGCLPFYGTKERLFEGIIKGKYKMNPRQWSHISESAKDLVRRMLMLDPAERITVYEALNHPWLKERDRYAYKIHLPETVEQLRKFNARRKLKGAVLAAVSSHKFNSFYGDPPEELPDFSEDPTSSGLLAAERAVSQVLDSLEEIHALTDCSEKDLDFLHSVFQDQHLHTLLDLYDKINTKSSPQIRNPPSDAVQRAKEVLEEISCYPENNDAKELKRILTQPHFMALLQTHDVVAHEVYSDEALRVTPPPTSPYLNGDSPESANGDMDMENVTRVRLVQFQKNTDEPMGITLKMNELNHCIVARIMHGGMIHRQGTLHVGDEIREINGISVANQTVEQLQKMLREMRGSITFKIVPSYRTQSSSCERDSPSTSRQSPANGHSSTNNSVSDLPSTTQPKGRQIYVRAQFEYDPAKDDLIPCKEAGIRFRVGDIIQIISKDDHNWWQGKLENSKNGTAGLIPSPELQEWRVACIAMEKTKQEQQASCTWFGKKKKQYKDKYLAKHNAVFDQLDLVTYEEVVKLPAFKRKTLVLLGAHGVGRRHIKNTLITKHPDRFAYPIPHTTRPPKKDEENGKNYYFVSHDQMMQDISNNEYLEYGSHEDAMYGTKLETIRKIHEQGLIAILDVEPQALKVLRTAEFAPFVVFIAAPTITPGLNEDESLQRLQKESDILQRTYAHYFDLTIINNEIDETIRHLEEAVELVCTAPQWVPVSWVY
Nature of the experiment: Inhibition of GST-tagged human CASK at 30 uM incubated for 90 mins by TR-FRET assay relative to control.

Experiment [11] deals with CDK9/cyclin T1 (Homo sapiens) (UniProt O60563+P50750). Description: Inhibition of His-tagged human CDK9/CycT1 incubated for 90 mins by TR-FRET assay relative to control. The format is protein-complex assay.
Experiment [12] deals with T1, Calcium/calmodulin-dependent protein kinase kinase 2. Description: Binding affinity to GST-tagged human CAMKK2 assessed as fold change in FRET signal at 30 uM incubated for 90 mins by TR-FRET assay relative to control.
Target sequence in this assay (Q96RR4 2-588 limits assumed): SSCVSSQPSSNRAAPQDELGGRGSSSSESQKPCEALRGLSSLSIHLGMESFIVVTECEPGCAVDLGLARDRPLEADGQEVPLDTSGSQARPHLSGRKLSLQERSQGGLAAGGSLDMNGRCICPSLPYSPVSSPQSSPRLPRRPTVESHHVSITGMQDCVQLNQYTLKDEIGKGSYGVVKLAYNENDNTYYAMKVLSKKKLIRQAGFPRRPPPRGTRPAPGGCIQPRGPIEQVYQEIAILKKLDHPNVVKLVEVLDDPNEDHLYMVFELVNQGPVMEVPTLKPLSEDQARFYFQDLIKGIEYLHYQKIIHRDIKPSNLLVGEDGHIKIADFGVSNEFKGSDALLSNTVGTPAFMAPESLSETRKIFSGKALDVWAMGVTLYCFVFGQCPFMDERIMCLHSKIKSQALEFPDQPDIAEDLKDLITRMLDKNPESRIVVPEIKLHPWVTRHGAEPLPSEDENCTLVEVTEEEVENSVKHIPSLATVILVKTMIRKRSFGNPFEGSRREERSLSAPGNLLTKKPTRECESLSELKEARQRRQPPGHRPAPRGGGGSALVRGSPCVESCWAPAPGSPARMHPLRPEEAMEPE

This is an account of results in ChEMBL document CHEMBL6071206, “Development of BODIPY FL SNS 032 as a Versatile Probe for Constitutive Androstane Receptor and Multiple Kinases” (ACS Med Chem Lett, 2024).

pEC50, pIC50, pKi: −log10 of the molar value. Some results are limits rather than exact numbers.

Broadly, the pIC50 is the IC50 on a negative log10 scale, so that one unit is a factor of ten. By pKi is commonly meant −log10 of the Ki, conventionally taken in molar units. The pEC50 is the negative decadic logarithm of the EC50, by convention in mol/L. The low end stands for a large EC50, the high end for a small EC50.

Glycogen synthase kinase-3 alpha, sequence (P49840 whole entry): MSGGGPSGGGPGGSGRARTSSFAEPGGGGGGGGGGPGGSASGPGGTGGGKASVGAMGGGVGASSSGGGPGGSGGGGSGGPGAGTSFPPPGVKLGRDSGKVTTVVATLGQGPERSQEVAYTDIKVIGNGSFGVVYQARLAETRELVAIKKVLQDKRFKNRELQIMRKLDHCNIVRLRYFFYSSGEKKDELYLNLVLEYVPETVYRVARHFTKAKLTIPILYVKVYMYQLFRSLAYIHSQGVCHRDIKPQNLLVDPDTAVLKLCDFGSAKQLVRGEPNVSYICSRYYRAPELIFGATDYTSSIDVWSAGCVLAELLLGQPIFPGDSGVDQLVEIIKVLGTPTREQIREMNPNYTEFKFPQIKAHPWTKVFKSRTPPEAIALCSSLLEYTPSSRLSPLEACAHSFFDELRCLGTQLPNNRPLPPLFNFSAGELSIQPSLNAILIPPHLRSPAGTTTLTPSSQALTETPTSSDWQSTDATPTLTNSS

Turning to `CN1CC[C@@H](c2c(O)cc(O)c3c(=O)cc(-c4ccccc4Cl)oc23)[C@@H]1CO`, the pIC50 is 5.19 in experiment [1], 6.57 in [2] and 6.15 in experiment [3].
With `CN1CC[C@H](c2c(O)cc(O)c3c(=O)cc(-c4ccccc4Cl)oc23)[C@H](O)C1` [ALVOCIDIB], the values for the pIC50 in experiment [1] and in experiment [3] were 6.53 and 6.79, respectively. For the same molecule, the figures for the pKi in experiment [1] and in [3] were 6.62 and 6.92, respectively.
As for `CC(C)(C)c1cnc(CSc2cnc(NC(=O)C3CCN(CC(=O)NCCOCCOCCOCCNc4cccc5c4C(=O)N(C4CCC(=O)NC4=O)C5=O)CC3)s2)o1` (centres undefined), in experiment [4], the pEC50 was 5.51. In addition, the negative logarithm of the IC50 (pIC50) is 5.57 in experiment [1]; 8.09 in experiment [2]; 5.18 in experiment [6]; 7.10 in experiment [3]; 8.25 in experiment [8]. Besides, the inhibition at 90 µM in [5] came out at 75.4%. Also, in [7], the inhibition at 100 µM came out at 43.4%.
`O=C(Nc1ccc2c(c1)N(C(=O)Cn1cccc1)c1ccccc1CC2)OC1CCCCC1` gave a negative logarithm of the IC50 (pIC50) in experiment [4] of 7.89.
Molecule `CC(C)(C)c1cnc(CSc2cnc(NC(=O)C3CCNCC3)s2)o1` [BMS-387032] gave a pEC50 in experiment [4] of 4.29. Also, in experiment [5], the inhibition at 90 µM was 26.4%. Also, the inhibition at 100 µM in experiment [7] was determined as 50.8%.
The molecule `Cc1oc2ccccc2c1CNC(=O)NCc1cccs1` gave a negative-log IC50 (pIC50) in [4] of 6.59.
`C[C@]12CC[C@@H](O)C[C@@H]1CC[C@@H]1[C@@H]2CC[C@]2(C)C=CC[C@@H]12` [ANDROSTENOL]: the pIC50 is 6.47 in experiment [4] and 6.60 in [6]. Further, in experiment [9], the inhibition at 100 µM was 84.7%.
`COc1cc(N2CCOCC2)ccc1Nc1ncc(F)c(Nc2ccccc2NS(C)(=O)=O)n1`: the negative logarithm of the IC50 (pIC50) in experiment [1] is 7.29; in experiment [2], 4.69; in experiment [3] it was 5.55. Also, the inhibition is 40.7% in experiment [10] and under 20% in [11]. Further, in [12], the fold change (FC) stood at 2.6.
